Laboratory results published in US20240294526A1, “FUSED TRI-CYCLIC COMPOUND AS A PDE3/PDE4 DUAL INHIBITOR” (CHIA TAI TIANQING PHARMACEUTICAL GROUP CO., LTD., priority 2018, published 2024).

Legend:
recombinant human PDE4B = recombinant human PDE4B (Homo sapiens (Human), UniProt Q07343); experiment: In vitro inhibitory activity against PDE 4B enzyme (fluorescence polarization); format: biochemical; conditions: 1 μM cAMP
Description: (§1) Experimental objective: to determine the AMP/GMP expression based on fluorescence polarization, i.e., to trace binding of AMP/GMP to antibody so as to indicate enzyme activity.
Experimental buffer solution: 10 mM Tris-HCl (pH 7.5), 5 mM MgCl2, 0.01% Brij 35, 1 mM DTT, and 1% DMSO.
Enzyme: recombinant human PDE4B (Gene accession number: NM_002600; amino acid 305-end) was expressed by baculovirus in Sf9 insect cells using an N-terminal GST tag, with molecularweight being 78 kDa.
(§2) Enzyme substrate: 1 μM cAMP
(§3) Detection: Transcreener® AMP2/GMP2 antibody and AMP2/GMP2 AlexaFluor633 tracer.
(§4) • 1. The recombinant human PDE4B enzyme and enzyme substrate (1 μM cAMP) were each dissolved in newly prepared experimental buffer solution; • 2. The PDE4B enzyme buffer solution was transferred into reaction wells; • 3. The compound which was dissolved in 100% DMSO was added to the reaction wells containing PDE4B enzyme buffer solution by acoustic technique (echo 550; millilambda range) and the mixture was incubated for 10 minutes at room temperature; • 4. The enzyme substrate buffer solution was added to the above reaction wells to initiate reaction; • 5. The resulting mixture was incubated at room temperature for 1 hour; • 6. The detection mixture (Transcreener® AMP2/GMP2 antibody and AMP2/GMP2 AlexaFluor633 tracer) was added to stop the reaction, and the resulting mixture was incubated for 90 minutes while slowly mixing. The measurement range of fluorescence polarization was Ex/Em=620/688.
(§5) Data analysis: the fluorescence polarization signal was converted to nM based on AMP/GMP standard curve and the percentage enzyme activity relative to DMSO control calculated by Excel. GraphPad Prism was used for curve fitting (drawing medical icon).

recombinant human PDE3A = recombinant human PDE3A (Homo sapiens (Human), UniProt Q14432); experiment: In vitro inhibitory activity against PDE 3A enzyme (fluorescence polarization); format: biochemical; conditions: 1 μM cAMP
Description: as §1
Experimental buffer solution: 10 mM Tris-HCl (pH 7.5), 5 mM MgCl2, 0.01% Brij 35, 1 mM Dithiothreitol (DTT), and 1% DMSO.
Enzyme: recombinant human PDE3A (Gene accession number: NM_000921; amino acid 669-end) was expressed by baculovirus in Sf9 insect cells using an N-terminal GST tag, with molecularweight being 84 kDa.
as §2, §3
as §4, with “PDE3A” for “PDE4B”, “newly-prepared” for “newly prepared”
as §5

[1] = Pharmacokinetic experiment in beagle dogs; format: in vivo
Description: In this study, male beagle dogs were selected as test animals, and liquid chromatography-tandem mass spectrometry (LC-MS/MS) method was used for quantitatively measuring the drug concentration in plasma of beagle dogs at different time points after intravenous injection or oral administration of compound WX036 so as to evaluate the pharmacokinetic characteristics of the compound WX036 in beagle dogs.
The clear solution of compound WX036 was injected into two 10-12 kg beagle dogs via the cephalic vein or saphenous vein, and the clear solution of test compound was administered intragastrically to two 10-12 kg beagle dogs (overnight fasted). The animals were all subjected to approximately 500 μL of blood collection each time from peripheral veins at 0.0333, 0.0833, 0.25, 0.5, 1, 2, 4, 6, 8, and 24 hours post-dose, and the blood was transferred into commercial centrifuge tubes containing 0.85-1.15 mg of K2 EDTA*2H2O anticoagulant, and plasma was taken by centrifugation at 3000 g for 10 minutes at 4° C. The plasma concentration was measured by LC-MS/MS method, and the relevant pharmacokinetic parameters were calculated by WinNonlin™ Version 6.3 (Pharsight, Mountain View, CA) pharmacokinetic software using non-compartmental model linear logarithmic trapezoid method.

[2] = reported; cited from earlier work
[3] = reported; cited from earlier work; remark: listed apart in the source

recombinant human PDE4B, sequence (Q07343 305-736 limits assumed): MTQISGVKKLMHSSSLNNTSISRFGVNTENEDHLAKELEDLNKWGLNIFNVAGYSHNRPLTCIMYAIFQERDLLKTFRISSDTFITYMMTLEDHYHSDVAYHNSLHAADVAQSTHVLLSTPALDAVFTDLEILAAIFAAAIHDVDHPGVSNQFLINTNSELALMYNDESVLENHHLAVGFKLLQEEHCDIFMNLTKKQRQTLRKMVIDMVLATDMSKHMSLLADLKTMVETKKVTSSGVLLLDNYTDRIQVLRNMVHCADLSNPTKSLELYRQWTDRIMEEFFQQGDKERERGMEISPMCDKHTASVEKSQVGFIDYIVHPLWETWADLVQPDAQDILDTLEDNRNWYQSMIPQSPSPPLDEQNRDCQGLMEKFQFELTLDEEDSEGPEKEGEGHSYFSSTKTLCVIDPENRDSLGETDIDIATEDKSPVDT
recombinant human PDE3A, sequence (Q14432 669-1141 limits assumed): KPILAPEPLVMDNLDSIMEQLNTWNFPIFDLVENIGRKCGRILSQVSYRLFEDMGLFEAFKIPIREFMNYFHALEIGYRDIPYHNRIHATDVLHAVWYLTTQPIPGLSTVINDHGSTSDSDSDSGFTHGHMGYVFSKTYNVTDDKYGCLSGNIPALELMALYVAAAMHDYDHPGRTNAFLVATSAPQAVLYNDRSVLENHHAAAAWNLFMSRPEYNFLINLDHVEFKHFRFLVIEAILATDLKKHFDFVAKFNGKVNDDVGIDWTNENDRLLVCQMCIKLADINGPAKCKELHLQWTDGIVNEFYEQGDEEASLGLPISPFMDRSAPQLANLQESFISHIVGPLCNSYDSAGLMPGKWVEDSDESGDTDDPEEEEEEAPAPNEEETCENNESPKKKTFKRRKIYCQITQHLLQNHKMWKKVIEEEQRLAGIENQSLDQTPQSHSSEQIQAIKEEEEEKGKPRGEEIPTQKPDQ

| IC50 (recombinant human PDE4B) [nM] | IC50 (recombinant human PDE3A) [nM] | Structure (SMILES) | other results |
| --- | --- | --- | --- |
| 0.24 | 1.1 | CCOc1cc2c(cc1OC)-c1c/c(=N\c3c(C)cc(C)cc3C)n(CCNC(=O)c3ccn[nH]3)c(=O)n1CCC2 [WX050] |  |
| 0.27 | 0.03 | CCOc1cc2c(cc1OC)-c1c/c(=N\c3c(C)cc(C)cc3C)n(CCNC(=O)c3cnn[nH]3)c(=O)n1CCC2 [WX048] |  |
| 5.4 |  | CCOc1cc2c(cc1OC)-c1c/c(=N\c3c(C)cc(C)cc3C)n(CCC(=O)Nc3cn[nH]c3)c(=O)n1CC2 [WX057] |  |
|  |  | CCOc1cc2c(cc1OC)-c1c/c(=N\c3c(C)cc(C)cc3C)n(CCNC(=O)c3c(O)nnn3C)c(=O)n1CC2 [WX036] | Area under plasma concentration-time curve (0-inf) ([1]; intravenous injection 0.5 mg/kg): 0.21 µM·h; Area under plasma concentration-time curve (0-inf) ([1]; oral administration 3 mg/kg): 0.123 µM·h; Peak concentration ([1]; oral administration 3 mg/kg): 59.4 nM; Time to peak ([1]; oral administration 3 mg/kg): 0.6 h |
| 1.1 |  | CCOc1cc2c(cc1OC)-c1c/c(=N\c3c(C)cc(C)cc3C)n(CCNC(=O)c3cnc[nH]3)c(=O)n1CC2 [WX021] |  |
| 1.9 | 0.57 | CCOc1cc2c(cc1OC)-c1c/c(=N\c3c(C)cc(C)cc3C)n(CCNC(=O)c3cnn[nH]3)c(=O)n1CCO2 [WX053] |  |
| 0.24 |  | CCOc1cc2c(cc1OC)-c1c/c(=N\c3c(C)cc(C)cc3C)n(CCNC(=O)c3cnn[nH]3)c(=O)n1CC2 [WX016] |  |
| 0.12 | 0.63 | CCOc1cc2c(cc1OC)-c1c/c(=N\c3c(C)cc(C)cc3C)n(CCNc3nc[nH]n3)c(=O)n1CCC2 [WX004] |  |
| 0.48 |  | CCOc1cc2c(cc1OC)-c1c/c(=N\c3c(C)cc(C)cc3C)n(CCNC(=O)c3ncco3)c(=O)n1CC2 [WX019] |  |
| 0.18 | 0.5 | CCOc1cc2c(cc1OC)-c1c/c(=N\c3c(C)cc(C)cc3C)n(CCNC(=O)c3ccn[nH]3)c(=O)n1CCO2 [WX052] |  |
| 1.7 |  | CCOc1cc2c(cc1OC)-c1c/c(=N\c3c(C)cc(C)cc3C)n(CCNC(=O)c3[nH]ncc3OC)c(=O)n1CC2 [WX037] |  |
| 0.16 | 0.1 | CCOc1cc2c(cc1OC)-c1c/c(=N\c3c(C)cc(C)cc3C)n(CCNC(=O)c3nnc[nH]3)c(=O)n1CCC2 [WX047] |  |
| 0.47 |  | CCOc1cc2c(cc1OC)-c1c/c(=N\c3c(C)cc(C)cc3C)n(CCNC(=O)c3ncon3)c(=O)n1CC2 [WX020] |  |
| 9.1 |  | CCOc1cc2c(cc1OC)-c1c/c(=N\c3c(C)cc(C)cc3C)n(CCC(=O)Nc3ncco3)c(=O)n1CC2 [WX056] |  |
| 2.5 |  | CCOc1cc2c(cc1OC)-c1c/c(=N\c3c(C)cc(C)cc3C)n(CCNC(=O)c3[nH]nnc3OC)c(=O)n1CC2 [WX026] |  |
| 0.05 | 0.3 | CCOc1cc2c(cc1OC)-c1c/c(=N\c3c(C)cc(C)cc3C)n(CCNC(=O)c3cnc[nH]3)c(=O)n1CCC2 [WX049] |  |
| 0.44 |  | CCOc1cc2c(cc1OC)-c1c/c(=N\c3c(C)cc(C)cc3C)n(CCNC(=O)c3[nH]nnc3N)c(=O)n1CC2 [WX025] |  |
|  |  | COc1cc2c(cc1OC)-c1cc(Oc3c(C(C)C)cccc3C(C)C)nc(=O)n1CC2 [RPL565] | plasma clearance [2]: high; solubility [3]: poor |
| 2.1 |  | CCOc1cc2c(cc1OC)-c1c/c(=N\c3c(C)cc(C)cc3C)n(CCC(=O)Nc3cnn[nH]3)c(=O)n1CC2 [WX055] |  |
|  |  | COc1cc2c(cc1OC)-c1c/c(=N\c3c(C)cc(C)cc3C)n(CCNC(N)=O)c(=O)n1CC2 [RPL554] | plasma clearance [2]: high; solubility [3]: poor |
| 0.43 |  | CCOc1cc2c(cc1OC)-c1c/c(=N\c3c(C)cc(C)cc3C)n(CCNC(=O)c3ncc[nH]3)c(=O)n1CC2 [WX017] |  |
| 0.05 |  | CCOc1cc2c(cc1OC)-c1c/c(=N\c3c(C)cc(C)cc3C)n(CCNC(=O)c3ccn[nH]3)c(=O)n1CC2 [WX018] |  |
